In patent publication US20070031328A1, “Radiolabeled-pegylation of ligands for use as imaging agents” (priority 2005, published 2007):

Assay: Biodistribution studies in normal mice
Format: in vivo, male ICR mice
Settings: tail vein injection, avg of 3 mice ± SD
Procedure: While under isoflurane anesthesia, 0.15 mL of a saline solution containing the F-18 tracers (10-20 uCi) was injected directly into the lateral tail vein of male ICR mice. The mice (n=3 for each time point) were sacrificed by cervical dislocation at 2, 30, 60 and 120 minutes post-injection. The organs of interest were removed, weighed and assayed for radioactivity content with an automatic gamma counter. The percentage dose per organ was calculated by a comparison of the tissue counts to suitably diluted aliquots of the injected material. Total activities of blood and bone were calculated under the assumption that they were 7% and 14% of the body weight, respectively. The % dose/g of samples was calculated by comparing the sample counts with the count of the diluted initial dose.

SMILES | Blood biodistribution (2 min) [% dose/g] | Blood biodistribution (30 min) [% dose/g] | Blood biodistribution (1 hr) [% dose/g] | Blood biodistribution (2 hr) [% dose/g] | Bone biodistribution (2 min) [% dose/g] | Bone biodistribution (30 min) [% dose/g] | Bone biodistribution (1 hr) [% dose/g] | Bone biodistribution (2 hr) [% dose/g] | Brain biodistribution (2 min) [% dose/g] | Brain biodistribution (30 min) [% dose/g] | Brain biodistribution (1 hr) [% dose/g] | Brain biodistribution (2 hr) [% dose/g] | Heart biodistribution (2 min) [% dose/g] | Heart biodistribution (30 min) [% dose/g] | Heart biodistribution (1 hr) [% dose/g] | Heart biodistribution (2 hr) [% dose/g] | Kidney biodistribution (2 min) [% dose/g] | Kidney biodistribution (30 min) [% dose/g] | Kidney biodistribution (1 hr) [% dose/g] | Kidney biodistribution (2 hr) [% dose/g] | other results
CNc1ccc(-c2nc3ccc(OCCOCC[18F])cc3s2)cc1 [[^18F]5a] | 3.37 ± 0.46 | 3.60 ± 0.13 | 4.55 ± 0.40 | 4.38 ± 0.14 | 1.69 ± 0.21 | 2.28 ± 0.20 | 3.17 ± 0.39 | 6.35 ± 1.32 | 10.27 ± 1.30 | 4.59 ± 0.47 | 3.94 ± 0.04 | 3.86 ± 0.35 | 8.32 ± 0.37 | 3.49 ± 0.27 | 3.81 ± 0.25 | 3.59 ± 0.03 | 13.02 ± 1.04 | 4.54 ± 0.62 | 3.98 ± 0.24 | 3.18 ± 0.16 | Liver biodistribution (2 min): 19.02 ± 1.06 % dose/g; Liver biodistribution (30 min): 7.98 ± 0.60 % dose/g; Liver biodistribution (1 hr): 6.35 ± 0.46 % dose/g; Liver biodistribution (2 hr): 5.05 ± 0.43 % dose/g; Lung biodistribution (2 min): 7.79 ± 0.34 % dose/g; Lung biodistribution (30 min): 3.91 ± 0.28 % dose/g; Lung biodistribution (1 hr): 3.84 ± 0.55 % dose/g; Lung biodistribution (2 hr): 3.63 ± 0.15 % dose/g; Muscle biodistribution (2 min): 0.82 ± 0.12 % dose/g; Muscle biodistribution (30 min): 2.83 ± 0.22 % dose/g; Muscle biodistribution (1 hr): 2.76 ± 0.17 % dose/g; Muscle biodistribution (2 hr): 2.36 ± 0.11 % dose/g; Skin biodistribution (2 min): 1.08 ± 0.22 % dose/g; Skin biodistribution (30 min): 3.14 ± 0.22 % dose/g; Skin biodistribution (1 hr): 3.15 ± 0.28 % dose/g; Skin biodistribution (2 hr): 2.62 ± 0.16 % dose/g; Spleen biodistribution (2 min): 6.92 ± 0.79 % dose/g; Spleen biodistribution (30 min): 3.93 ± 0.29 % dose/g; Spleen biodistribution (1 hr): 3.87 ± 0.61 % dose/g; Spleen biodistribution (2 hr): 3.32 ± 0.16 % dose/g
CNc1ccc(-c2nc3ccc(OCCOCCOCC[18F])cc3s2)cc1 [[^18F]5b] | 6.29 ± 1.19 | 3.41 ± 0.07 | 3.91 ± 0.23 | 4.04 ± 0.45 | 2.13 ± 0.16 | 1.48 ± 0.03 | 1.82 ± 0.04 | 2.41 ± 0.28 | 5.53 ± 0.56 | 2.33 ± 0.15 | 2.18 ± 0.09 | 1.96 ± 0.13 | 6.26 ± 1.12 | 3.22 ± 0.33 | 3.06 ± 0.15 | 2.50 ± 0.09 | 9.02 ± 0.77 | 5.27 ± 0.77 | 3.97 ± 0.25 | 2.97 ± 0.07 | Liver biodistribution (2 min): 21.84 ± 1.56 % dose/g; Liver biodistribution (30 min): 13.75 ± 1.88 % dose/g; Liver biodistribution (1 hr): 11.22 ± 0.82 % dose/g; Liver biodistribution (2 hr): 9.13 ± 1.11 % dose/g; Lung biodistribution (2 min): 7.35 ± 1.50 % dose/g; Lung biodistribution (30 min): 3.94 ± 0.29 % dose/g; Lung biodistribution (1 hr): 3.63 ± 0.25 % dose/g; Lung biodistribution (2 hr): 3.24 ± 0.10 % dose/g; Muscle biodistribution (2 min): 1.40 ± 0.11 % dose/g; Muscle biodistribution (30 min): 1.92 ± 0.34 % dose/g; Muscle biodistribution (1 hr): 1.58 ± 0.13 % dose/g; Muscle biodistribution (2 hr): 1.38 ± 0.11 % dose/g; Skin biodistribution (2 min): 2.09 ± 0.22 % dose/g; Skin biodistribution (30 min): 2.27 ± 0.17 % dose/g; Skin biodistribution (1 hr): 1.92 ± 0.13 % dose/g; Skin biodistribution (2 hr): 1.57 ± 0.06 % dose/g; Spleen biodistribution (2 min): 5.24 ± 0.67 % dose/g; Spleen biodistribution (30 min): 2.66 ± 0.14 % dose/g; Spleen biodistribution (1 hr): 2.84 ± 0.13 % dose/g; Spleen biodistribution (2 hr): 2.46 ± 0.05 % dose/g
CNc1ccc(-c2nc3ccc(OCCOCCOCCOCCOCCOCC[18F])cc3s2)cc1 [[^18F]5c] | 3.54 ± 0.12 | 2.52 ± 0.29 | 2.46 ± 0.29 | 1.54 ± 0.19 | 1.68 ± 0.60 | 1.20 ± 0.29 | 1.68 ± 0.17 | 2.31 ± 0.37 | 2.57 ± 0.12 | 1.69 ± 0.23 | 1.80 ± 0.25 | 1.29 ± 0.17 | 9.37 ± 0.18 | 2.11 ± 0.27 | 1.82 ± 0.28 | 1.19 ± 0.15 | 23.00 ± 0.89 | 5.01 ± 0.84 | 3.50 ± 0.86 | 1.27 ± 0.08 | Liver biodistribution (2 min): 12.43 ± 1.11 % dose/g; Liver biodistribution (30 min): 3.94 ± 0.29 % dose/g; Liver biodistribution (1 hr): 2.86 ± 0.38 % dose/g; Liver biodistribution (2 hr): 1.67 ± 0.32 % dose/g; Lung biodistribution (2 min): 4.68 ± 0.27 % dose/g; Lung biodistribution (30 min): 2.41 ± 0.37 % dose/g; Lung biodistribution (1 hr): 2.08 ± 0.32 % dose/g; Lung biodistribution (2 hr): 1.24 ± 0.16 % dose/g; Muscle biodistribution (2 min): 1.60 ± 0.98 % dose/g; Muscle biodistribution (30 min): 1.87 ± 0.38 % dose/g; Muscle biodistribution (1 hr): 1.52 ± 0.24 % dose/g; Muscle biodistribution (2 hr): 0.93 ± 0.07 % dose/g; Skin biodistribution (2 min): 0.95 ± 0.12 % dose/g; Skin biodistribution (30 min): 2.14 ± 1.03 % dose/g; Skin biodistribution (1 hr): 1.42 ± 0.14 % dose/g; Skin biodistribution (2 hr): 0.91 ± 0.10 % dose/g; Spleen biodistribution (2 min): 4.74 ± 0.23 % dose/g; Spleen biodistribution (30 min): 2.05 ± 0.18 % dose/g; Spleen biodistribution (1 hr): 1.87 ± 0.26 % dose/g; Spleen biodistribution (2 hr): 1.13 ± 0.16 % dose/g
